From patent US12486239B2, “Benzotriazole compound, light absorber, and resin composition” (MITSUI CHEMICALS, INC., priority 2019, dated 2025)

Legend:
Format in all cases: physicochemical
[1] = Solubility to various organic solvents; conditions: room temperature; for Solubility to various organic solvents: PGMEA / Solubility to various organic solvents: Ethyl acetate / Solubility to various organic solvents: MEK / Solubility to various organic solvents: MMA / Solubility to various organic solvents: Toluene: Table 1; for Solubility to various organic solvents: MEK / Solubility: MEK: methyl ethyl ketone; for Solubility to various organic solvents: MMA / Solubility: MMA: methyl methacrylate; for Solubility: PGMEA / Solubility: EA / Solubility: MEK / Solubility: MMA / Solubility: Toluene: Table 6; for Solubility to various organic solvents: Ethyl acetate / Solubility: EA: ethyl acetate
Procedure: As Comparative Example 1, the solubility of TINUVIN326 (manufactured by BASF Japan Ltd.) represented by the following Formula (TI) was measured by the following method.
(§1) To 0.5 g of the benzotriazole compound, the various organic solvents shown in Table 1 were added such that the total mass was about 10 g, the mixture was irradiated with ultrasonic waves for about 30 minutes, and thereafter stirred at room temperature for 2 hours to prepare a dispersion of about 10% by mass.
The dispersion was filtered through a membrane filter (0.2 μm), and the obtained residue was dried in a dryer at 60° C. for 1 hour, and then the mass of the residue was measured.
The solubility of the benzotriazole compound to the solvent was expressed by the following formula. Solubility (% by mass)=(W0−W1)/W0
W0 is the mass of the benzotriazole compound before the treatment, and W1 is the mass of the residue after drying (that is, the dissolution residue of the benzotriazole compound). In a case in which no residue remained on the filter, the solubility was determined as 5% by mass or more.
The solubility of the benzotriazole compound obtained in each Example and Comparative Example was measured by the following method.
as §1, with “Table 6” for “Table 1”

[2] = Heat resistance: TG5% decomposition temperature; conditions: nitrogen atmosphere, heating rate 10° C./min; for T-5% by mass: Table 2; for Decomposition temperature (Tg-5% by mass): Table 6
Procedure: In each Example and Comparative Example, the decomposition temperature was measured by the following method.
Using a thermal analyzer Rigaku ThermoPlus Evo TG8120, the TG5% decomposition temperature (T-5% by mass) was measured under a nitrogen atmosphere at a heating rate of 10° C./min and a temperature range of from room temperature to 500° C.
The higher the T-5% by mass, the higher the heat resistance.
The decomposition temperature of the benzotriazole compound obtained in each Example and Comparative Example was measured by the following method.

[3] = Maximum absorption wavelength and gram absorption coefficient, toluene solution 0.01 g/L (first embodiment); conditions: optical path length 10 mm
Procedure: (§2) The maximum absorption wavelength of the benzotriazole compound of the first embodiment is measured using a spectrophotometer (for example, Shimadzu Spectrophotometer UV-1600 manufactured by Shimadzu Corporation) at an optical path length of 10 mm using a toluene solution having a concentration of 0.01 g/L.
(§3) In Examples according to the first embodiment, the maximum absorption wavelength and the gram absorption coefficient of the benzotriazole compound were measured using a Shimadzu Spectrophotometer UV-1600 manufactured by Shimadzu Corporation at an optical path length of 10 mm using a toluene solution having a concentration of 0.01 g/L.

[4] = Maximum absorption wavelength and gram absorption coefficient, toluene solution 0.002 g/L (second embodiment); conditions: optical path length 10 mm
Procedure: as §2, with “second” for “first”, “at” for “at an”, “0.002” for “0.01”
as §3, with “second” for “first”, “0.002” for “0.01”

Structure (SMILES) | Solubility to various organic solvents: PGMEA [1] | Solubility to various organic solvents: Ethyl acetate [1] | Solubility to various organic solvents: MEK [1] | Solubility to various organic solvents: MMA [1] | Solubility to various organic solvents: Toluene [1] | T-5% by mass [2] [°C] | gram absorption coefficient [3] | maximum absorption [3] [nm] | Solubility: PGMEA [1] [% by mass] | Solubility: EA [1] [% by mass] | Solubility: MEK [1] | Solubility: MMA [1] | Solubility: Toluene [1] | Decomposition temperature (Tg-5% by mass) [2] [°C] | gram absorption coefficient [4] [mL/g/cm] | maximum absorption [4] [nm]
CCCCC(CC)C(=O)Nc1ccc(-n2nc3ccc(Cl)cc3n2)c(O)c1 (stereo not drawn) [Compound (56)] | 0.8 % by mass | 0.8 % by mass | 2 % by mass | 1.2 % by mass | 0.2 % by mass | 312.7 | 7.48×10^4 g/mL·cm | 359.0 | – | – | – | – | – | – | – | –
CCCCC(CC)C(=O)Nc1ccc(-n2nc3ccc(Sc4ccc(C(C)(C)C)cc4)cc3n2)c(O)c1 (stereo not drawn) [Compound (58)] | 2 % by mass | 3 % by mass | 5 or more % by mass | 5 or more % by mass | 2 % by mass | 374.7 | 6.61×10^4 g/mL·cm | 371.5 | – | – | – | – | – | – | – | –
CCC(C)(C)C(=O)Nc1ccc(-n2nc3ccc(Cl)cc3n2)c(O)c1 [Compound (59)] | 5 or more % by mass | 5 or more % by mass | 5 or more % by mass | 5 or more % by mass | 2 % by mass | 309.1 | 8.40×10^4 g/mL·cm | 359.0 | – | – | – | – | – | – | – | –
CCC(C)(C)C(=O)Nc1ccc(-n2nc3ccc(Sc4ccc(C(C)(C)C)cc4)cc3n2)c(O)c1 [Compound (101)] | 1 % by mass | 1.5 % by mass | 3 % by mass | 3 % by mass | 1 % by mass | 366.1 | 7.02×10^4 g/mL·cm | 371.5 | – | – | – | – | – | – | – | –
CCNc1cc(O)c(-n2nc3ccc(OC)cc3n2)cc1C [Compound (111)] | 3 % by mass | 5 % by mass | 10 % by mass | 4 % by mass | 1 % by mass | 252.6 | 1.04×10^5 g/mL·cm | 378.5 | – | – | – | – | – | – | – | –
CCCCC(CC)C(=O)Nc1ccc(-n2nc3ccc(Sc4ccccc4)cc3n2)c(O)c1 (stereo not drawn) [Compound (112)] | 2 or more % by mass | 3 or more % by mass | 10 or more % by mass | 4 or more % by mass | 1 or more % by mass | 368.0 | 7.47×10^4 g/mL·cm | 370.0 | – | – | – | – | – | – | – | –
CCCCC(CC)C(=O)Nc1ccc(-n2nc3ccc(Sc4ccc(C)cc4)cc3n2)c(O)c1 (stereo not drawn) [Compound (113)] | 1 or more % by mass | 1 or more % by mass | 2.5 or more % by mass | 2 or more % by mass | 0.5 or more % by mass | 365.5 | 6.98×10^4 g/mL·cm | 371.5 | – | – | – | – | – | – | – | –
Cc1cc(-n2nc3ccc(SCCOCCOCCSc4ccc5nn(-c6cc(C)cc(C(C)(C)C)c6O)nc5c4)cc3n2)c(O)c(C(C)(C)C)c1 [Compound D1] | – | – | – | – | – | – | – | – | ≤1 | ≤1 | ≤1 % by mass | ≤2 % by mass | 3≤ % by mass | 331.7 | 59200 | 368.5
Cc1cc(-n2nc3ccc(SCCOCCSc4ccc5nn(-c6cc(C)cc(C(C)(C)C)c6O)nc5c4)cc3n2)c(O)c(C(C)(C)C)c1 [Compound D2] | – | – | – | – | – | – | – | – | – | – | 3≤ % by mass | 3≤ % by mass | 3≤ % by mass | 322.2 | 63500 | 368.0
Cc1cc(-n2nc3ccc(SCCOC(=O)c4cc(C(=O)OCCSc5ccc6nn(-c7cc(C)cc(C(C)(C)C)c7O)nc6c5)cc(C(=O)OCCSc5ccc6nn(-c7cc(C)cc(C(C)(C)C)c7O)nc6c5)c4)cc3n2)c(O)c(C(C)(C)C)c1 [Compound D3] | – | – | – | – | – | – | – | – | ≤1 | ≤1 | ≤0.5 % by mass | ≤0.5 % by mass | 1.5≤ % by mass | 335.1 | 62000 | 364.5
